Measured values as given in US7855309B2, “Pesticide benzyloxy- and phenetyl-substituted phenyl-amidine derivatives” (Bayer CropScience AG, priority 2005, dated 2010).
Where two headings read alike, the source gives them in different places.

Tests used:
[1] = logP by HPLC on reversed-phase column (EEC Directive 79/831 Annex V.A8); type: physicochemical; conditions: for chromatographic logP: reversed-phase HPLC column (C18)
Protocol: Temperature: 40° C.; Mobile phases: 0.1% aqueous formic acid and acetonitrile; linear gradient from 10% acetonitrile to 90% acetonitrile.
Calibration was carried out using unbranched alkan-2-ones (comprising 3 to 16 carbon atoms) with known logP values (determination of the logP values by the retention times using linear interpolation between two successive alkanones).

Aedes aegypti larvae = assay: In vivo protective test on Aedes aegypti (AEDSAE U)
Protocol: In Vivo Protective Test on Aedes Aegypti (AEDSAE U)
Solvent: 1% N-methylpyrrolidone (NMP)
• 1% diacetonealcohol Dye: brillantsulfoflavin for staining water
To produce a suitable preparation of the active compound, the active compound is mixed with the stated amount of solvent, and the concentrate is diluted with staining water to the desired concentration.
Aedes aegypti larvae are pipetted with a preparation of active ingredient of the desired concentration.
After the specified period of time, mortality in % is determined. 100% means that all larvae have been killed, a 0% means that none of the larvae have been killed.

Myzus persicae = assay: In vivo protective test on Myzus persicae (MYZUPE); conditions: Chinese cabbage leaf-disks, all instars, spray
Protocol: In Vivo Protective Test on Myzus persicae (MYZUPE)
Solvent: 78 parts by weight acetone
• 1.5 parts by weight dimethylformamide Dye: 0.5 parts by weight alkylarylpolyglcolether
To produce a suitable preparation of active compound, 1 part by weight of active compound is mixed with the stated amount of solvent and emulsifier, and the concentrate is diluted with emulsifier-containing water to the desired concentration.
Chinese cabbage (Brassica pekinesis) leaf-disks infected with all instars of the green peach aphid (Myzus persicae), are sprayed with a preparation of the active ingredient at the desired concentration.
After the specified period of time, mortality in % is determined. 100% means that all aphids have been killed; 0% means that none of the aphids have been killed.

[2] = HPLC, C18, 40° C., 0.1% aqueous formic acid and acetonitrile

Structure (SMILES) | log P [1, 2] | activity (mortality) (Aedes aegypti larvae) | activity (mortality) (Myzus persicae) | chromatographic logP ([1]; pH 2.3, read-out: log P (pH 2.3)) | chromatographic logP ([1]; HPLC, C18, 40° C., 0.1% aqueous formic acid and acetonitrile, read-out: log P)
CCN(C)C=Nc1cc(C)c(OCc2ccc(Cl)cc2)cc1C [Compound 1] | 2.14 | good activity |  |  | 
CCN(C)C=Nc1cc(C)c(OCc2c(Cl)cccc2Cl)cc1C [Compound 3] | 2.05 | good activity | good activity |  | 
CCN(C)C=Nc1cc(C)c(OC(C)c2c(Cl)cccc2Cl)cc1C (centres unmarked) [Compound 4] | 2.52 | good activity |  |  | 
CCN(C)/C=N/c1cc(C)c(OCc2cccc(C(F)(F)F)c2)cc1C [Compound 9, N′-(2,5-dimethyl-4-{[3-(trifluoromethyl)benzyl]oxy}phenyl)-N-ethyl-N-methylimidoformamide] |  | good activity |  | 2.24 | 2.24
CCN(C)C=Nc1cc(C)c(OCc2ccc(Cl)c(Cl)c2)cc1C [Compound 13] | 2.38 | good activity | good activity |  | 
CCN(C)C=Nc1cc(C)c(OCc2ccc(C(F)(F)F)cc2)cc1C [Compound 14] | 2.28 | good activity |  |  | 
CCN(C)C=Nc1cc(C)c(OCc2ccccc2OC(F)(F)F)cc1C [Compound 16] | 2.28 |  | good activity |  | 
CCN(C)C=Nc1cc(C)c(OCc2ccc(Cl)cc2C(F)(F)F)cc1C [Compound 18] | 2.52 | good activity | good activity |  | 
CCN(C)C=Nc1cc(C)c(OCc2cc(Cl)cc(C(F)(F)F)c2)cc1C [Compound 19] | 2.54 |  | good activity |  | 
CCN(C)C=Nc1cc(C)c(OCc2cc(C(F)(F)F)ccc2Cl)cc1C [Compound 20] | 2.44 |  | good activity |  | 
CCN(C)C=Nc1cc(C)c(OCc2ccc(C(F)(F)F)cc2Cl)cc1C [Compound 25] | 2.47 |  | good activity |  | 
CCN(C)C=Nc1cc(C)c(OC(C)c2ccccc2Cl)cc1C (centres unmarked) [Compound 29] | 2.24 | good activity | good activity |  | 
CCN(C)C=Nc1cc(C)c(OC(C)c2cccc(Cl)c2)cc1C (centres unmarked) [Compound 30] | 2.23 |  | good activity |  | 
CCN(C)C=Nc1cc(C)c(OC(C)c2ccc(Cl)cc2)cc1C (centres unmarked) [Compound 31] | 2.26 |  | good activity |  | 
CCN(C)C=Nc1cc(C)c(CCc2cc(C(F)(F)F)cc(C(F)(F)F)c2)cc1C [Compound 35] | 2.79 |  | good activity |  | 
CCN(C)C=Nc1cc(C)c(OCc2cccc(OCC(F)(F)F)c2)cc1C [Compound 49] | 2.21 |  | good activity |  | 

Structure (SMILES) | log P [1, 2] | activity (mortality) (Aedes aegypti larvae) | activity (mortality) (Myzus persicae) | chromatographic logP ([1]; pH 2.3, read-out: log P (pH 2.3)) | chromatographic logP ([1]; HPLC, C18, 40° C., 0.1% aqueous formic acid and acetonitrile, read-out: log P)
CCN(C)C=Nc1cc(C)c(OCc2ccc(Oc3ccc(F)cc3)cc2)cc1C [Compound 52] | 2.8 |  | good activity |  | 
CCN(C)C=Nc1cc(C)c(OCc2cc(C)ccc2C)cc1C [Compound 56] | 2.23 |  | good activity |  | 
CCN(C)C=Nc1cc(C)c(OCc2c(F)cccc2Cl)cc1C [Compound 61] | 2.09 |  | good activity |  | 
CCN(C)C=Nc1cc(C)c(OCc2ccc(C)c(C)c2)cc1C [Compound 64] | 2.23 |  | good activity |  | 
CCN(C)C=Nc1cc(C)c(OCc2cccc(Br)c2)cc1C [Compound 65] | 2.18 |  | good activity |  | 
CCN(C)C=Nc1cc(C)c(OCc2ccccc2SC(F)(F)F)cc1C [Compound 68] | 2.36 |  | good activity |  | 
CCN(C)C=Nc1cc(C)c(OCc2cccc(SC(F)(F)F)c2)cc1C [Compound 69] | 2.45 |  | good activity |  | 
CCN(C)C=Nc1cc(C)c(OCc2ccc(Oc3ccc(SC)cc3)cc2)cc1C [Compound 72] | 2.74 |  | good activity |  | 
CCN(C)C=Nc1cc(C)c(OCc2ccc(Oc3ccc(Cl)cc3)cc2)cc1C [Compound 73] | 2.8 |  | good activity |  | 
Cc1cc(OCc2cc(Cl)cc(Cl)c2)c(C)cc1N=CN1CCCCC1 [Compound 90] | 2.51 |  |  |  | 
Cc1ccc(C)c(COc2cc(C)c(N=CN3CCCCC3)cc2C)c1 [Compound 91] | 2.33 |  |  |  | 
Cc1cc(OCc2cc3c(cc2Cl)OCO3)c(C)cc1N=CN1CCCCC1 [Compound 92] | 2.16 |  |  |  | 
Cc1cc(OCc2cccc(Cl)c2)c(C)cc1N=CN1CCCCC1 [Compound 94] | 2.21 |  |  |  | 
Cc1cc(OCc2ccc(C(C)(C)C)cc2)c(C)cc1N=CN1CCCCC1 [Compound 95] | 2.64 |  |  |  | 
Cc1cc(OCc2cccc(C(F)(F)F)c2)c(C)cc1N=CN1CCCCC1 [Compound 96] | 2.29 |  |  |  | 
Cc1cc(OCc2cc(F)ccc2F)c(C)cc1N=CN1CCCCC1 [Compound 97] | 2.09 |  |  |  | 
